# From patent US20050232911A1, “Prevention and treatment of metabolic abnormalities associated with excess intramyocellular lipid” (priority 2004, published 2005)
# Assays:
# [1] = cited from earlier work
# whole animal models = settings: cited from earlier work
# obese Zucker rats [2] = experiment: Intramyocellular lipid content (oil red O staining of adductor magnus muscle) after chronic levocarnitine; format: in vivo, rat; settings: obese Zucker rats with metabolic syndrome; chronic administration, 100 mg/kg bodyweight daily in drinking water or food
# Procedure: Forty-five male obese Zucker rats are obtained at 5 weeks of age (Charles is River) and randomized into three groups of 15 each. Namely, the forty-five male obese Zucker rats are randomized into Control Group A, Control Group B, and L-Carn Group, which each consists of 15 rats. Control Group A and Control Group B receive normal rat chow throughout the study. The 15 Zucker rats in L-Carn Group receive 100 mg/kg bodyweight (BWt) of levocarnitine, daily, in their drinking water or mixed with their food. […] After determining insulin sensitivity, the adductor magnus muscle of the left hind leg is isolated and the anterior and posterior ends tied with 3-O silk and cut outside the ties. The muscle is placed across a wooden stick, slightly wider than the muscle section is long, and tied in place to preserve its normal amount of stretch, then immediately immersed in isopentane cooled in liquid nitrogen. […] The lipid content of the sections is determined by using histochemical staining. One such suitable histochemical staining process includes using lipid-soluble dye to dye respective sections of tissue which are then observed and/or other wise analyzed. […] Ones of the three muscle fiber types are examined and lipid concentrations are determined respectively, pursuant to techniques and methods well known to those skilled in the art. […]
# obese Zucker rats [3] = experiment: Insulin sensitivity by euglycemic-hyperinsulinemic clamp technique; format: in vivo, rat; settings: chronic administration
# Procedure: Forty-five male obese Zucker rats are obtained at 5 weeks of age (Charles is River) and randomized into three groups of 15 each. Namely, the forty-five male obese Zucker rats are randomized into Control Group A, Control Group B, and L-Carn Group, which each consists of 15 rats. Control Group A and Control Group B receive normal rat chow throughout the study. The 15 Zucker rats in L-Carn Group receive 100 mg/kg bodyweight (BWt) of levocarnitine, daily, in their drinking water or mixed with their food. At 6 weeks of age, all groups are placed in metabolic cages for 24-hours to determine baseline protein and creatinine excretion rates, whereby proteinuria can be determined. […] At 6 weeks of age, the Zucker rats of Control Group A are anesthetized with sodium pentobarbital (50-60 mg/kg BWt intraperitoneally) and insulin sensitivity is determined using the euglycemic-hyperinsulinemic clamp technique, explained elsewhere herein. […] Blood glucose is determined every 15 minutes over a 120 minute baseline period. […] Blood glucose is analyzed every 5 minutes from a catheter in the femoral artery using a glucometer (Freestyle®, test volume required=0.3 μL) and the rate of D-glucose infused is adjusted to maintain plasma glucose at ˜5 mol/L. Whole body insulin sensitivity is calculated at the mean glucose infusion rate during the last 60 minutes of the euglycemic-hyperinsulinemic clamp study. […]
# Type II Diabetics = settings: acute administration; cited from earlier work
# obese Zucker rats [4] = experiment: Renal histology / kidney injury; format: in vivo, rat; settings: chronic administration, secondary benefit
# Procedure: Forty-five male obese Zucker rats are obtained at 5 weeks of age (Charles is River) and randomized into three groups of 15 each. Namely, the forty-five male obese Zucker rats are randomized into Control Group A, Control Group B, and L-Carn Group, which each consists of 15 rats. Control Group A and Control Group B receive normal rat chow throughout the study. The 15 Zucker rats in L-Carn Group receive 100 mg/kg bodyweight (BWt) of levocarnitine, daily, in their drinking water or mixed with their food. At 6 weeks of age, all groups are placed in metabolic cages for 24-hours to determine baseline protein and creatinine excretion rates, whereby proteinuria can be determined. Systolic blood pressure measurements are obtained by tailcuff plethysmography and a sample of blood is obtained from the tail for determination of fasting plasma creatinine, insulin, blood glucose, triglycerides, and cholesterol. These measurements are subsequently repeated at 12, 18, and 24 weeks of age. […]
# As one example, the PAS stained kidney sections are e.g. observed, examined, studied, and/or analyzed with light microscopy or other suitable means, while considering suitable observational criteria which includes, but is not limited to, a suitable glomerular sclerosis index, a suitable tubulointerstitial index, a suitable mesangial matrix index, and/or others. […]
# canine cardiac tissue = settings: cited from earlier work
# [5] = carnitine treatment; cited from earlier work
# obese Zucker rat = settings: treated rats; cited from earlier work
structure (smiles),measurement,setting,value
Cc1c(C)c2c(c(C)c1O)CCC(C)(COc1ccc(CC3SC(=O)NC3=O)cc1)O2 (centres unmarked) [troglitazone],hepatotoxicity,[1]; removed from the market,excessive hepatotoxicity
CCOC(=O)[C@@]1(CCCCCCOc2ccc(Cl)cc2)CO1 [Etomoxir],intramyocellular lipid,whole animal models,rise in intramyocellular lipid
same,whole body insulin resistance,whole animal models,increasing degrees of whole body insulin resistance
"C[N+](C)(C)CC(O)CC(=O)[O-] (centres unmarked) [levocarnitine, 3-hydroxy-4-N trimethylammonium butyrate]",intramyocellular lipid concentration,obese Zucker rats [2],decreases the intramyocellular lipid concentration
same,insulin sensitivity,"obese Zucker rats [3]; obese Zucker rats with metabolic syndrome, 100 mg/kg bodyweight daily",improves insulin sensitivity
same,systemic insulin concentrations,obese Zucker rats [3]; obese Zucker rats,lower systemic insulin concentrations
same,glucose storage and oxidation,Type II Diabetics,both glucose storage and oxidation
same,whole body glucose uptake,Type II Diabetics,significantly increased whole body glucose uptake
same,kidney injury,obese Zucker rats [4],reduction of kidney injury
same,elution of long chain acyl CoA esters,canine cardiac tissue,ability of levocarnitine to elute long chain acyl CoA esters has been demonstrated
same,urinary excretion of long chain carnitine esters,[5],increased urinary excretion of long chain carnitine esters
CN(CCOc1ccc(CC2SC(=O)NC2=O)cc1)c1ccccn1 (centres unmarked) [roziglitazone],concentration of IMCL,obese Zucker rat,reduce the concentration of IMCL
same,insulin sensitivity,obese Zucker rat,marked improvement in insulin sensitivity
same,side effects,[1]; in vivo,weight gain
